Experimental findings from patent US11352316B2, “Opioid receptor modulators and products and methods related thereto” (priority 2018, dated 2022) are described below.

The structures appear in SMILES notation.

As usually defined, the EC50 is the concentration giving half of the maximal effect.

The subject of one assay is Male Sprague-Dawley rats. The assay can be described thus: Hot plate assay. In kind it is in vivo. As to conditions: rat, SC. The method, then: Male Sprague-Dawley rats weighing 275-300 grams were used in the study, n=8-10 per group. Animals are injected SC with 0.9% normal saline solution. At 15, 45, and 80 min after the injection, animals were placed onto a hotplate set to 52 degrees centigrade, and baseline latency is recorded (baseline latency=average time to 2nd withdrawal response consisting of either a lick of a rear paw, shaking a rear paw, backwards walking or jumping). A day later animals were injected SC with test compounds either in vehicle solution, or with a mix of compounds in solution. Next the test latency was recorded (test latency=time to withdrawal on the hotplate measured at 15, 45, 80, 120, 180 and 240 min using the procedure described). Times were then converted to % maximum possible effect (% MPE)=(test_latecy−baseline_latency)/(30 sec−baseline_latency); where 30 sec is the cutoff where the animal is removed if no response ifs observed as it is the time point at which injury is expected to occur.
A general note: Hot-plate and tail-flick tests time the reaction to a heat stimulus.

The target of a further assay is T1, mu opioid receptor (MOR) (Homo sapiens, UniProt P35372).
T1 construct: host or cells: CHO-K1
T1 sequence (P35372 whole entry): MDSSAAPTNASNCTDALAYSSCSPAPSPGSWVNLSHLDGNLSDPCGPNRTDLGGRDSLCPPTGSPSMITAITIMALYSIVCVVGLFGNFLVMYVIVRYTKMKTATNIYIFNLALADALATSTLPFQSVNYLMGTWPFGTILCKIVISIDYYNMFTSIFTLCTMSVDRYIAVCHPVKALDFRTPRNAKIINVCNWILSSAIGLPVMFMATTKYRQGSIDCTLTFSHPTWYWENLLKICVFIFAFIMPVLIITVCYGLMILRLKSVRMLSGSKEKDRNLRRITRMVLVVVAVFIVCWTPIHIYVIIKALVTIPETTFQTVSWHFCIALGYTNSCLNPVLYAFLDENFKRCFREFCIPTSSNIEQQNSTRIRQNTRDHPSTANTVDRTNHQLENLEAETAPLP
The assay can be described thus: MOR GTPγS agonist assay (membranes, SPA beads). In kind it is biochemical. The conditions noted are these: membranes of CHO-K1 cells over-expressing MOR. The source says: Membranes obtained from the stable cell lines over-expressing MOR were subjected to GTPγS assay using SPA beads (Perkin Elmer, Cat #RPNQ0001).

With `CN(C)[C@H](CNC(=O)[C@@H]1C[C@]1(C)c1ccccc1)Cc1ccc(O)cc1Cl` [Compound B-15, (1R,2S)—N—((S)-3-(2-chloro-4-hydroxyphenyl)-2-(dimethylamino)propyl)-2-methyl-2-phenylcyclopropane-1-carboxamide], in the assay on Male Sprague-Dawley rats (co-dosed with Compound B-56, FIG. 1), the “effect on the analgesic activity of agonist Compound B-56 in the hotplate test” value is “blocks in vivo the analgesic activity of the agonist Compound B-56”. For the same compound, in the assay with Male Sprague-Dawley rats (dosed alone, FIG. 1), the “effect on its own in the hotplate test” value was “no effect on its own”.

For `Cc1cc(O)ccc1C[C@@H](CNC(=O)[C@@H]1C[C@@]1(C)c1ccccc1)N(C)C` [Compound B-56, (1R,2R)—N—((S)-2-(dimethylamino)-3-(4-hydroxy-2-methylphenyl)propyl)-2-methyl-2-phenylcyclopropane-1-carboxamide], the “analgesic activity in the hotplate test (time to withdrawal response, % MPE)” value with Male Sprague-Dawley rats (hotplate 52 degrees centigrade, FIG. 1) is reported as “analgesic”.

For the compound `CNC(=O)c1ccc(C[C@@H](CNC(=O)c2ccc(Cl)cc2Cl)N(C)C)cc1F` [Compound C-37, (S)-2,4-dichloro-N-(2-(dimethylamino)-3-(3-fluoro-4-(methylcarbamoyl)phenyl)propyl) benzamide], at mu opioid receptor (MOR), the concentration for a half-maximal effect (EC50) is under 100 nM.

In the case of `CNC(=O)c1cc(C)c(C[C@@H](CNC(=O)c2ccccc2OC)N(C)C)c(C)c1` [Compound C-68, (S)-4-(2-(dimethylamino)-3-(2-methoxybenzamido)propyl)-N,3,5-trimethylbenzamide], the 50% effective concentration (EC50) at mu opioid receptor (MOR) is under 100 nM.
